{"source": "patent US20250064799A1", "about": "“ORAL FORMULATIONS OF LEVOSIMENDAN FOR TREATING PULMONARY HYPERTENSION WITH HEART FAILURE WITH PRESERVED EJECTION FRACTION” (Tenax Therapeutics, Inc., priority 2021, published 2025)", "key": {"[1]": {"settings": "in vivo; cited from earlier work"}, "patients with PH-HFpEF [2]": {"system": "patients with PH-HFpEF", "assay": "TNX-LVO-05 open-label extension, weekly 24-hour I.V. levosimendan: 6MWT and HR", "assay_type": "in vivo, human", "design": "TNX-LVO-05 (WK 24/48) 6MWT: unit not given beside the values", "settings": "individual patients, week 24/48", "from_the_text": "PH-HFpEF is a progressive, fatal disease for which there are no approved therapies. All patients that the 6-week parent TNX-LVO-04 study (also referred to as the initial Help Study) underwent assessments of safety and efficacy in a double-blind randomized protocol. […] For these reasons, all participating patients were allowed to enter an open-label extension study (also referred to as TNX-LVO-05), to provide ongoing levosimendan therapy for two additional years.\nThe efficacy of the once weekly levosimendan regimen is supported by an active metabolite with an extended half-life of 70-80 hours. The metabolite peaks approximately two days after completing the weekly dose, declining through the remainder of the week. Data from the parent TNX-LVO-04 study indicate patients' response to therapy peaks early in the week, followed by a decline in keeping with exposure to the active metabolite. Patients that entered TNX-LVO-05 were required to undergo the insertion of a port-a-cath, learn how to self-administer the levosimendan infusion through a port-a-cath at home, and weekly administer IV levosimendan through their port-a-cath for 24 hours. It is important to note that patients who entered TNX-LVO-05 have chosen to continue their 24-hour weekly levosimendan dose regimen, acknowledging that patients recognize the benefits of the drug."}, "patients with PH-HFpEF [3]": {"system": "patients with PH-HFpEF", "assay": "Serum BNP or NT-proBNP levels, I.V. to oral levosimendan transition study", "assay_type": "in vivo, human", "description": "Methods: Patients with PH-HFpEF who were in the open label extension study of the HELP Trial for more than 18 months volunteered to enroll in this transition protocol. Patients were initiated with 1 mg/day of oral levosimendan 5-7 days after the last IV levosimendan infusion. The oral dose was increased every 2 weeks by 1 mg/day to a maximum of 4 mg/day over an 8 week period. The highest daily dose was determined by the investigator based on clinical assessments of symptoms and side effects. The primary safety endpoints were change in resting heart rate and blood pressure from baseline to final study visit and all other adverse events. Secondary efficacy endpoints included change in six-minute walk distance (6MWD), serum brain natriuretic peptide (BNP) or NT-proBNP levels, and quality of life as assessed by Kansas City Cardiomyopathy Questionnaire clinical summary score (KCCQ-CS) and overall summary score (KCCQ-OS) from baseline to final study visit. All comparisons were the baseline and at week 6-8 measurements at the highest daily dose of levosimendan.\n• Change in six-minute walk distance (6MWD) from baseline to final study visit • Change in serum brain natriuretic peptide (BNP) or NT-proBNP levels from baseline to final study visit • Change in quality of life as assessed by Kansas City Cardiomyopathy Questionnaire clinical summary score (KCCQ-CS) and overall summary score (KCCQ-OS) from baseline to final study visit\nAll comparisons were the baseline and at week 6-8 measurements at the highest daily dose of levosimendan."}, "[4]": {"system": "subjects with pulmonary hypertension with heart failure and preserved ejection fraction", "assay": "TNX-LVO-05 safety review: treatment emergent adverse events", "assay_type": "in vivo, human", "from_the_text": "This is the third safety review for Study Protocol No. TNX-LVO-05. This review a) summarizes treatment emergent adverse events (TEAEs), treatment emergent serious adverse events (TESAEs), discontinuations due to TEAEs, and b) provides an overall assessment of safety data.\nAs of 4 Nov. 2020, 36 subjects have been enrolled in this open-label study with levosimendan and 18 (−5; this number presents change versus previous Safety Review) are still active. Seven subjects (+3) withdrew due to AE, and eight (+2) subjects withdrew consent. One subject was withdrawn by investigator decision."}, "[5]": {"system": "phosphodiesterase-3 (PDE3)", "settings": "in vitro; cited from earlier work"}}, "note": "“And” between values parts separate entries of the source, which are not always exact repeats. Identical values can stand only once."}
{"smiles": "C[C@@H]1CC(=O)NN=C1c1ccc(NN=C(C#N)C#N)cc1", "note": "[levosimendan]", "values": [{"measurement": "parent half-life", "setting": "[1]", "value": "approximately 1 hour"}, {"measurement": "TNX-LVO-05 (WK 24/48) 6MWT", "setting": "patients with PH-HFpEF [2]", "value": "310 and 180 and 312 and 255 and 347 and 393 and 313 and 91 and 274 and 213 and 225 and 174 and 590"}, {"measurement": "TNX-LVO-05 (WK 24/48) HR", "setting": "patients with PH-HFpEF [2]", "value": "62 (3×) and 64 and 85 (2×) and 70 and 69 and 74 and 58 and 73 and 82 and 75 and 87 and 65 and 78 and 77 and 91"}, {"measurement": "change in NT-proBNP", "setting": "patients with PH-HFpEF [3]; n=7, baseline to final study visit, oral levosimendan", "value": "−239.4 (SD 548.1) pg/dl"}, {"measurement": "change in BNP", "setting": "patients with PH-HFpEF [3]; n=8, baseline to final study visit, oral levosimendan", "value": "−133.3 (SD 136.6) pg/dl"}, {"measurement": "improvement in BNP/NT-ProBNP biomarker measurements", "setting": "patients with PH-HFpEF [3]; oral levosimendan compared to weekly I.V. infusion", "value": 22, "unit": "%"}, {"measurement": "TEAE arthralgia", "setting": "[4]; of 36 enrolled", "value": 3, "unit": "subjects"}, {"measurement": "TEAE asthenia", "setting": "[4]; of 36 enrolled", "value": 3, "unit": "subjects"}, {"measurement": "TEAE back pain", "setting": "[4]; of 36 enrolled", "value": 3, "unit": "subjects"}, {"measurement": "TEAE cardiac failure", "setting": "[4]; of 36 enrolled", "value": 6, "unit": "subjects"}, {"measurement": "TEAE dermatitis", "setting": "[4]; of 36 enrolled", "value": 3, "unit": "subjects"}, {"measurement": "TEAE device infusion issues", "setting": "[4]; of 36 enrolled", "value": 3, "unit": "subjects"}, {"measurement": "TEAE dizziness", "setting": "[4]; of 36 enrolled", "value": 8, "unit": "subjects"}, {"measurement": "TEAE dyspnea", "setting": "[4]; of 36 enrolled", "value": 8, "unit": "subjects"}, {"measurement": "TEAE fluid overload", "setting": "[4]; of 36 enrolled", "value": 3, "unit": "subjects"}, {"measurement": "TEAE gout", "setting": "[4]; of 36 enrolled", "value": 3, "unit": "subjects"}, {"measurement": "TEAE headache", "setting": "[4]; of 36 enrolled", "value": 5, "unit": "subjects"}, {"measurement": "TEAE hemoptysis", "setting": "[4]; of 36 enrolled", "value": 3, "unit": "subjects"}, {"measurement": "TEAE hypokalemia", "setting": "[4]; of 36 enrolled", "value": 7, "unit": "subjects"}, {"measurement": "TEAE palpitations", "setting": "[4]; of 36 enrolled", "value": 4, "unit": "subjects"}, {"measurement": "TEAE pneumonia", "setting": "[4]; of 36 enrolled", "value": 3, "unit": "subjects"}, {"measurement": "TEAE upper respiratory tract infection", "setting": "[4]; of 36 enrolled", "value": 3, "unit": "subjects"}, {"measurement": "TEAE urinary tract infection", "setting": "[4]; of 36 enrolled", "value": 3, "unit": "subjects"}, {"measurement": "TEAE ventricular extrasystoles", "setting": "[4]; of 36 enrolled", "value": 3, "unit": "subjects"}, {"measurement": "TEAE weight increased", "setting": "[4]; of 36 enrolled", "value": 3, "unit": "subjects"}, {"measurement": "drug-related TEAE device infusion issue", "setting": "[4]; of 36 enrolled", "value": 3, "unit": "subjects"}, {"measurement": "drug-related TEAE headache", "setting": "[4]; of 36 enrolled", "value": 2, "unit": "subjects"}, {"measurement": "drug-related TEAE palpitations", "setting": "[4]; of 36 enrolled", "value": 2, "unit": "subjects"}, {"measurement": "drug-related TEAE urticaria", "setting": "[4]; of 36 enrolled", "value": 2, "unit": "subjects"}, {"measurement": "drug-related TEAE ventricular extrasystoles", "setting": "[4]; of 36 enrolled", "value": 2, "unit": "subjects"}, {"measurement": "subjects permanently discontinued study drug due to a TEAE", "setting": "[4]; of 36 enrolled", "value": 5, "unit": "subjects"}, {"measurement": "subjects with TEAEs, SOC General disorders and administration site conditions", "setting": "[4]; of 36 enrolled", "value": 15, "unit": "subjects"}, {"measurement": "subjects with TEAEs, SOC Nervous system disorders", "setting": "[4]; of 36 enrolled", "value": 15, "unit": "subjects"}, {"measurement": "TESAE asthenia", "setting": "[4]; of 36 enrolled (5.6%)", "value": 2, "unit": "subjects"}, {"measurement": "TESAE cardiac failure congestive", "setting": "[4]; of 36 enrolled (5.6%)", "value": 2, "unit": "subjects"}, {"measurement": "TESAE pneumonia", "setting": "[4]; of 36 enrolled (8.3%)", "value": 3, "unit": "subjects"}, {"measurement": "TESAEs, SOC Metabolism and nutrition disorders", "setting": "[4]; of 36 enrolled (8.3%)", "value": 4, "unit": "subjects"}, {"measurement": "related TEAEs, SOC Nervous system disorders", "setting": "[4]; of 36 enrolled (8.3%)", "value": 3, "unit": "subjects"}, {"measurement": "related TEAEs, SOC Respiratory, thoracic and mediastinal disorders", "setting": "[4]; of 36 enrolled (8.3%)", "value": 3, "unit": "subjects"}, {"measurement": "related TEAEs, SOC Skin and subcutaneous tissue disorders", "setting": "[4]; of 36 enrolled (8.3%)", "value": 3, "unit": "subjects"}, {"measurement": "related TEAEs, SOC cardiac disorders", "setting": "[4]; of 36 enrolled (8.3%)", "value": 5, "unit": "subjects"}, {"measurement": "TESAE cardiac failure", "setting": "[4]; of 36 enrolled (11.1%)", "value": 4, "unit": "subjects"}, {"measurement": "related TEAEs, SOC Product issues", "setting": "[4]; of 36 enrolled (11.4%)", "value": 4, "unit": "subjects"}, {"measurement": "TESAEs, SOC Infections and Infestations", "setting": "[4]; of 36 enrolled (22.2%)", "value": 8, "unit": "subjects"}, {"measurement": "TESAEs, SOC cardiac disorders", "setting": "[4]; of 36 enrolled (22.2%)", "value": 8, "unit": "subjects"}, {"measurement": "subjects with TEAE severity moderate", "setting": "[4]; of 36 enrolled (25.0%)", "value": 9, "unit": "subjects"}, {"measurement": "subjects with TEAE severity mild", "setting": "[4]; of 36 enrolled (27.8%)", "value": 10, "unit": "subjects"}, {"measurement": "subjects with TEAE severity severe", "setting": "[4]; of 36 enrolled (36.1%)", "value": 13, "unit": "subjects"}, {"measurement": "subjects with TEAEs considered related to the study drug", "setting": "[4]; of 36 enrolled (41.7%)", "value": 15, "unit": "subjects"}, {"measurement": "subjects with TEAEs, SOC Cardiac disorders", "setting": "[4]; of 36 enrolled (47.2%)", "value": 17, "unit": "subjects"}, {"measurement": "subjects with TEAEs, SOC Infections and Infestations", "setting": "[4]; of 36 enrolled (47.2%)", "value": 17, "unit": "subjects"}, {"measurement": "subjects with serious TEAEs (TESAEs)", "setting": "[4]; of 36 enrolled (55.6%)", "value": 20, "unit": "subjects"}, {"measurement": "subjects with TEAEs", "setting": "[4]; of 36 enrolled (88.9%)", "value": 32, "unit": "subjects"}, {"measurement": "overall safety assessment", "setting": "[4]; third safety review, as of 4 Nov. 2020", "value": "no safety trends or signals"}, {"measurement": "serious TEAEs considered related", "setting": "[4]; two of 36 enrolled", "value": 5.6, "unit": "%"}, {"measurement": "PDE3/PDE4 inhibition ratio", "setting": "[5]", "value": "10,000"}]}
